How the values were obtained:
Type in all cases: cell-based, human
[1] = system: myeloid suppressive cells; assay: Induction of immunosuppressive factor mRNA by PGE2 and EP agonists (FIG. 3)
Description: FIG. 3. PGE2, EP4 and EP2 agonists mediate enhanced development of MDSCs. […] All data were confirmed in 3-7 independent experiments. Bar graphs present data of a single representative experiment with different donors as mean±s.d.

[2] = system: PGE2-induced myeloid suppressive cells; assay: Dose-dependent induction of immunosuppressive factors with or without IL-4 (FIG. 4); settings: presence or absence of IL-4
Description: FIG. 4 Minimal requirement for high doses of PGE2 in the functional induction of myeloid suppressive cells, regardless of the presence or absence of IL-4. (A) Dose-dependent expression of immunosuppressive factors IL10, IDO1, IL4Rα and COX2 in PGE2-induced suppressive cells, generated in the presence or absence of IL-4. Histograms present data of a single representative experiment with different donors as mean±s.d.

[3] = system: monocytes isolated from healthy blood donors; assay: Induction of COX2 and suppressive factors in short-term cultured monocytes (FIG. 1)
Protocol: FIG. 1. The induction of endogenous COX2 and MDSC-associated suppressive factors in monocytes by PGE2. (A) Expression of COX2 mRNA (A, left) and protein (A, right) levels in monocytes isolated from healthy blood donors is induced by synthetic PGE2. Regulation of COX1 and COX2 expression by synthetic PGE2 was analyzed after 6-10 h. […] All data (panels A-B) were confirmed in at least 3 independent experiments. Bar graphs present data of a single representative experiment with different donors as mean±s.d. P<0.05 marked *; P<0.01 marked **; P<0.001 marked ***.

[4] = system: differentiating monocytes; assay: Six-day GM-CSF and IL-4-supplemented cultures of differentiating monocytes: phenotype, suppressive factors, CD8+ T cell suppression (FIG. 2)
Description: PGE2 acts on four subtypes of G protein-coupled receptors designated EP1, EP2, EP3, and EP4, among which EP2 and EP4 signaling is coupled to rise in cAMP concentration.
FIG. 2. PGE2 redirects DC differentiation and induces CD14^+CD33^+CD34^+ cells with the phenotype and function similar to monocytic MDSCs. (A) Phenotype of PGE2-induced CD1a^−CD14^+CD80^−CD83^− suppressive cells expressing inhibitory molecules ILT2, ILT3, ILT4, PDL-1, but not PDL-2. PGE2-induced suppressive cells express E-prostanoid receptors (labeled with α-EP1-, α-EP3- sec.Alexa488 and α-EP2-, α-EP4-PE). […] (bottom) Expression of immunosuppressive factors IL10, IDO1, IL4Rα and COX2 in PGE2-induced suppressive cells. (C) Immunosuppressive effects of PGE2-induced suppressive cells on allogeneic naïve CFSE-labeled CD8^+ T cells primed by CD3/CD28 and stained for granzyme B. Left panel: Percentages indicate the fraction of proliferating granzyme B^+ (marker of CTL status) CD8^+ cells. Right panel: Percentage of proliferating CD8^+ T cells in the presence of PGE2-induced suppressive cells (PGE2-d0) and PGE2-conditioned DCs (PGE2-d6). All data (panels A-C) were confirmed in at least 3 independent experiments. Bar graphs present data of a single representative experiment with different donors as mean±s.d. P<0.05 marked *; P<0.01 marked **; P<0.001 marked ***.

suppressive cells = assay: Yield of ex vivo generated cells (FIG. 5); settings: N=12 donors, mean
Description: Yield of PGE2-induced myeloid suppressive cells was similar as the yield of iDCs and TNF-a matured DCs (FIG. 5). FIG. 5. PGE2 allows for ex vivo generation of high numbers of suppressive cells. […] Histograms present data of individual experiments (N=12) with different donors as mean±s.d.

`O=C1CC[C@H](/C=C/[C@@H](O)Cc2ccccc2)N1CCCCCCc1nn[nH]n1` [CAY10598] was tested, and the “induction of immunosuppressive factors arginase, IDO1, NOS2, IL-4Rα, IL10 and COX2 mRNA” value (“induction … IL10 and COX2 mRNA” for short) [1] was “induced high levels”.

In the case of `CCCC1([C@H](O)C/C=C/[C@H]2[C@H](O)CC(=O)[C@@H]2CCCCCCC(=O)OC)CCC1` [Butaprost], the “induction … IL10 and COX2 mRNA” value [1] is reported as “induced high levels”.

For `CCCCC[C@H](O)/C=C/[C@H]1[C@H](O)CC(=O)[C@@H]1C/C=C\CCCC(=O)O` [PGE2, (5Z,11 alpha,13E,15S)-11,15-dihydroxy-9-oxoprosta-5,13-dien-1-oic acid], the “induction … IL10 and COX2 mRNA” value [1] was “Induction of immunosuppressive factors”, the “induction of IL4Rα” value [2] was “less pronounced, but also significant” and the “production of IL-10, ARG-1, NOS2 and IDO1” value [2] was “dose-dependently induced”. The “expression of additional immunosuppressive factors IDO1, NOS2, IL-10, IL4Rα” value [3] was “induced the expression”, the “expression of endogenous COX2” value ([3]; analyzed after 6-10 h) was “start expressing endogenous COX2” and the “induction of CD1a+CD14- DCs” value ([4]; added to GM-CSF and IL-4-supplemented cultures of differentiating monocytes) was “abolished the induction of CD1a^+CD14^− DCs”. For the same compound, the CTL-suppressive function ([4]; added to GM-CSF/IL-4-supplemented monocyte cultures) was “sufficient to induce the CTL-suppressive function”, the IL-10 production ([4]; after 6 days of culture) was 261 pg/mL and the yield of cells (suppressive cells) was 48.6%.

TNF-α showed a yield of cells (suppressive cells) of 36.9%.

Source: US20140255358A1, “GENERATION OF IMMUNOSUPPRESSIVE MYELOID CELLS USING PGE2” (priority 2011, published 2014)
